Measured values taken from patent US7479267B2, “Cell-or organ-differentiation controllers and method of controlling morphogenesis by using the same” (Okayama Prefecture, priority 2000, dated 2009).
Where two headings read alike, the source gives them in different places.

Legend:
[1] = tested on: Arabidopsis thaliana late-flowering mutant fca; assay type: in vivo
Procedure: (§1) Arabidopsis thaliana late-flowering mutant fca (Accession No. N167) obtained from Arabidopsis Stock Center publicly established at the University of Nottingham (U.K.) and wild type plant Ler (Accession No. NW20) were grown at 23° C. under a day length condition of 16-h light/8-h dark cycle at 100 μE/m^2 light intensity and used in the experiments. As a medium, soil consisting of 2 Vermiculite (Asahi Kogyo), 2 Kureha molding for raising seedlings (KUREHA chemical industry Co., Ltd.) and 1 Vermiculite (Asahi Kogyo), which are stacked in layer as the lower, middle and the upper layers, respectively, was used.
(§2) BSO was dissolved in water at a final concentration of 10^−1M and used as a stock solution. Then, the treatment solutions at 10^−3-10^−7M were prepared from the stock solution (FIGS. 1-3). Two to three plants were placed per a pot (about 40×50 mm) and the treatment solution was added dropwise around the shoot apex at 5 ml/day per a pot. The treatment was performed on day 0 (the initiation date of treatment), 1, 3, 5 and 7, which set of treatments was regarded as one processing.
(§3) Glutathione treatment was performed after dissolving glutathione into the BSO solution at a concentration of 10^−4 M.
(§4) The effect of treatment was estimated based on the number of rosette leaves and the elongation rate of floral stem. […] Cold treatment was performed at 4° C. concurrently with a chemical treatment.
(§5) (3) BSO treatment and glutathione (GSH) treatment was concurrently performed. BSO solution (concentration: 10^−4 M) to which glutathione was added was used in the same manner as described above.
(§6) An aqueous solution of hydrogen peroxide was prepared immediately before use. Two to three plants were placed per a pot (about 40×50 mm). On 17 days after imbibition and thereafter, the treatment solution was added dropwise around the shoot apex at 5 ml/day per a pot. The treatments were performed on day 0 (the initiation date of treatment), 1, 3, 5 and 7, which set of treatments was regarded as one processing. The time of floral transition was compared using the rosette leaf number as an index. […] The values are expressed as mean±standard error.
as §6, with “As a redox-state regulator” for “An aqueous solution”, “cells, KCN or NaN3 was used. KCN or sodium azide” for “hydrogen peroxide”, “use and used at concentrations described in FIG. 6 or 7, respectively.” for “use.”, “mm)” for “mm). On 17 days after imbibition”, “and” for “and thereafter, the”, “pot. KCN or NaN3 treatment was started 17 days after imbibition.” for “pot.”

[2] = tested on: Arabidopsis thaliana wild type plant Ler; test: Regulation of flowering time in wild type plant Ler; assay type: in vivo
Procedure: as §1, §2, §3, §4, §5

[3] = tested on: Arabidopsis thaliana late-flowering mutant fca; assay type: in vivo; remark: listed apart in the source
Procedure: as §1, §2
The effect of treatment was estimated based on the number of rosette leaves and the elongation rate of floral stem. […]
An aqueous solution of hydrogen peroxide was prepared immediately before use. […] The values are expressed as mean±standard error.

[4] = tested on: Nicotina tabacum L. callus; test: Regulation of formation of adventitious bud in callus; assay type: cell-based; details: 0.1 mM BSO, 1 mM GSH or 1 mM GSSG in adventitious formation medium; 3 weeks after induction
Procedure: Nicotina tabacum L. leaves grown aseptically was callused in a callus-inducible medium (an essential medium consisting of 1% agar and Murashige and Skoog medium (MS medium) supplied with 0.1 mg/L benzyladenine (BA) and […] naphthaleneacetic acid (NAA)). The resultant callus was transferred to an adventitious formation medium (an essential medium consisting of 1% agar and Murashige and Skoog medium (MS medium) supplied with 1 mg/L BA and […] NAA). To the adventitious-formation medium, 0.1 mM BSO, 1 mM GSH or 1 mM GSSG (oxidized glutathione) was added as a redox-state regulator. The same medium lacking in supplements was prepared and used as a control medium.

[5] = tested on: Zinnia elegans L. (cv. Scarlet Frame); details: 60 mM hydrogen peroxide; 2 days after imbibition (FIG. 9)
Procedure: Soft papers were laid in plastic dishes (100×15 mm) and seeded with Zinnia elegans L. (cv. Scarlet Frame) (15 seeds/dish). To the dish was added a solution of hydrogen peroxide up to 15 ml, and allowed to germinate (light condition, 50 μE/m^2, 16-h light/8-h dark cycle; temperature 27° C.). Aqueous solutions each containing hydrogen peroxide at the concentrations indicated in FIG. 9 were prepared immediately before use and applied to the seeds. Observation was performed on 2 days after imbibition (see FIG. 9). In the figure, the concentration of hydrogen peroxide (unit: mM) used in treatment is shown at the right downside of each panel.

[6] = tested on: Arabidopsis thaliana wild type plant Ler; details: hydrogen peroxide 10^−3M; 23° C.; 1 week after imbibition; microscope
Procedure: Soft papers were laid in plastic dishes (100×15 mm) and seeded with Arabidopsis thaliana wild type plant Ler. To the dish was added 15 ml of an aqueous solution of hydrogen peroxide (10^−3M) for imbibition. Germination was allowed to arise at 23° C. and the root hair formation was observed 1 week after imbibition under a microscope.

[7] = tested on: Glycine max (cv: Tanbaguro); details: hydrogen peroxide 10^−3M; 23° C.; 1 week after imbibition; microscope
Procedure: Soft papers were laid in plastic dishes (100×15 mm) and seeded with Glycine max (cv: Tanbaguro). To the dish was added 15 ml of an aqueous solution of hydrogen peroxide (10^−3M) for imbibition.

[8] = tested on: Triticum aesivum L. (cv. Shirasagi); details: 144 hours (6 days) after imbibition; hydrogen peroxide concentrations of FIG. 8
Description: Soft papers were laid in plastic dishes (100×15 mm), and seeded with Triticum aesivum L. (cv. Shirasagi) or Oryza sativa L. (cv. Nipponbare) (15 seeds/dish). […] In the figure, the values are expressed as mean±standard error.

CCCCS(=N)(=O)CCC(N)C(=O)O [BSO, L-buthionine sulfoximine]
flowering time ([1]; fca, BSO treatment started 12 days after imbibition (FIG. 1A)): delayed
rosette leaf number compared with the water treated control group ([1]; fca, BSO treatment started 17 days after imbibition, result 1 week afterward (FIG. 1C)): decreased
bolting ([2]; Ler grown in an agar medium containing BSO just after germination): the bolting was delayed
transition to flowering ([2]; Ler, BSO treatment started 12 days after imbibition (FIG. 1B)): significantly accelerated
elongation rate of floral stem ([3]; fca, BSO treatment started day 17, monitored for several months (FIG. 2)): faster than that of control group
Adventitious buds/callus [4]: 30 or more buds/callus

N[C@@H](CCC(=O)N[C@@H](CS)C(=O)NCC(=O)O)C(=O)O [GSH, glutathione]
transition to flowering at 1 mM GSH ([1]; in vivo): delay of the transition to flowering
transition to flowering with increasing GSH concentration ([1]; in vivo): acceleration of the transition to flowering as GSH concentration increased first
transition to flowering with increasing GSH concentration ([2]; Ler, GSH given concurrently with BSO 10^−4 M, at the time when BSO accelerates flowering (FIG. 3A)): delay of the transition to flowering as GSH concentration increased
Adventitious buds/callus [4]: 2-3 buds/callus

OO [hydrogen peroxide]
time of floral transition based on the rosette leaf number ([1]; in vivo): accelerated
elongation rate of floral stem ([3]; in vivo): accelerated
cotyledon opening [5]: occurred earlier
order of emergence of cotyledons and root at germination [5]: cotyledons came out from the pericarp before root did
root hair formation [6]: not in the dish treated with hydrogen peroxide solution
root hair formation [7]: not in the dish treated with hydrogen peroxide solution
cell elongation (length of coleoptile) [8]: cells were elongated

oxidized glutathione [GSSG]
Adventitious buds/callus [4]: 2-3 buds/callus
